Starred links: 1 amine or outer side, 2 acyl side, 3 side chain; linkers in the order of their positions; H or OH if unused. Positions of bridges follow the written chain, without caps; N, C: chain ends. Non-standard residues stand in square brackets, D forms with d. Residues, ends and D or L forms follow the SMILES beside them. Chains are numbered I, II in the order given. Actinocin(9to1) = Cc1c2oc3c(C)ccc(C(=O)[*:1])c3nc-2c(C(=O)[*:2])c(N)c1=O; NMeV = CN[C@H](C(=O)O)C(C)C; Sar = CNCC(=O)O
Experiments:
human neutrophils [1] = assay: superoxide formation (SOD-sensitive cytochrome c reduction) by human neutrophils; type: cell-based; conditions: 1 μm PAF for 2 minutes
Description: a) Superoxide production: neutrophils (3×10^6 /ml) are preincubated at 37° with or without 1 μm PAF for 2 minutes and then stimulated with increasing amounts of NAF. Recordings of cytochrome c reduction following NAF addition are shown.
Superoxide formation is measured at 37° as the SOD sensitive reduction of ferricytochrome c (M. Markert et al., Methods Enzymol. 132 [1984] 267). The assay mixture (800 μl) consists of 0.75×10^6 cells/ml PBS-BSA containing 85 μM cytochrome c. Absorbance changes are recorded in a Hewlett-Packard 8451A diode array spectrophotometer equipped with a thermostated seven-place cuvette exchanger. Table 4 documents the capacity of NAF to elicit the respiratory burst in human neutrophils: […]

human neutrophils [2] = conditions: Wymann et al., J. Biol. Chem. 262 [1987] 12048; cited from earlier work
[3] = tested on: New Zealand albino rabbits; assay: neutrophil accumulation and plasma leakage in rabbit skin after intradermal injection; type: in vivo; conditions: 2 h; for effect on neutrophil accumulation induced by NAF: NAF 10^−9 moles; for effect on neutrophil accumulation induced by fMLP: fMLP 10^−9 moles
Excerpt: Inflammatory responses are examined in the skin of conscious 2.0 to 2.5 kg New Zealand albino rabbits. Erythrocytes in blood from donor rabbits are sedimented with hydroxyethyl cellulose (Polysciences, Warrington, Pa.) and neutrophils in the resultant leucocyte-rich plasma are purified (>94% neutrophils) by density gradient centrifugation on Percoll (Pharmacia, Uppsala, Sweden). Cells are resuspended in Ca^2+ and Mg^2+—free Tyrode's solution containing 10% platelet poor plasma to a concentration of 10^6 leukocytes/ml and labeled for 15 min at room temperature with 40 μCi ^111indium-oxine (Amersham) per 10^6 cells. The labeled cells are washed by centrifugation through 10% platelet-poor plasma and approximately 10^6 cells per recipient are mixed with 10 μCi ^125iodine-labeled human serum albumin (Amersham) and injected intravenously through the lateral ear vein of rabbits with inflammatory lesions under study. Intradermal injections of inflammatory agents are then made and animals are killed 2 h later in studies with actinomycin D and polymyxin B, and 4 h later in dose-response experiments. Midway through the period that radiolabeled cells are in circulation, a blood sample is collected and the specific activities of neutrophils and plasma in blood are determined. Radioactivity in inflammatory lesions at the end of each experiment are determined in a multichannel gamma counter, the activity in control skin sites is subtracted and the absolute number of neutrophils and volume of plasma accumulating in inflammatory lesions are calculated from the specific activities. Neutrophil numbers in inflammatory lesions are standardised between animals by expressing the results as cell number per 10^6 neutrophils circulating per ml peripheral blood, according to the method of Cybulsky et al., Am. J. Pathol. 124 [1986] 367.
Recombinant NAF obtained as described under Example 19 is dissolved at 400 μg/ml in minimal essential medium (50 mM) plus 0.45 M NaCl (pH 6.5). Endotoxin (E. coli serotype 055:B5, Sigma, St. Louis, Mo.) is dissolved in pyrogen-free normal saline. fMLP is dissolved in dimethyl sulphoxide at 10^−2 M and diluted to working concentrations in PFS. Polymyxin B and actinomycin D are dissolved in 1 ml ethanol and diluted 20 fold by mixing with NAF, endotoxin or fMLP in PFS. In studies on inhibition of inflammatory responses 40 μg polymyxin B and 10^−7 moles actinomycin D are injected per skin site with […] endotoxin. In all experiments 0.2 ml of inflammatory agents are injected intradermally per site through 26 gauge needles, with 5 replicates of each treatment in each animal.

human neutrophils [4] = assay: stimulus-dependent exocytosis of granule contents by human neutrophils; type: cell-based; conditions: fMLP 0.1 μM
Description: Neutrophils (5×10^6/ml) suspended in PBS/BSA are preincubated with or without cytochalasin B (5 μg/ml) at 37° for 5 min.
Granule release is then initiated by adding the stimulus, e.g. NAF or a standard stimulus. The reaction is stopped 15 min later by rapid cooling in ice followed by centrifugation to sediment the cells. Vitamin B12-binding protein, β-glucuronidase and lactate dehydrogenase are determined in the cell-free media and cell pellets, and the release of these constituents is calculated in percent of the total cellular content (B. Dewalt and M. Baggiolini, Methods Enzymol. 132 [1986] 267).
Natural and recombinant NAF are tested in parallel on human neutrophils. They elicit virtually identical changes in cytosolic free Ca^2+, yielding a maximum rise at a concentration as low as 3 nM (FIG. 15). A nearly identical concentration-dependent respiratory burst response is obtained with both preparations in the range of 1 to 30 nM as assessed by chemiluminescence. The equivalence between natural and recombinant NAF is also reflected by chemotaxis and exocytosis measurements. Chemotactic migration is observed between 0.1 and 10 nM with a maximum effect at 1 nM. (Table 6). With either peptide a significant release of vitamin B12-binding protein from the specific granules at 0.3 nM and of beta-glucuronidase from the azurophil granules at 1 nM is observed.

human neutrophils [5] = assay: hydrogen peroxide formation by chemiluminescence in human neutrophils; type: cell-based
Description: b) H2O2-dependent chemiluminescence: the progress curves following stimulation with partially purified NAF and approximately equiactive concentrations of C5a and fMLP are shown on the left. The initial phase of the response is detailed on the right. The stimulants are added in 50 μl of PBS-BSA.
Lower graphs: respiratory burst induced by natural (left) and recombinant (right) NAF. Neutrophils (10^6 cells/ml) are stimulated with 3, 10 and 30 nM NAF at time zero and hydrogen peroxide production is measured by chemiluminescence (M. P. Wymann et al., Anal. Biochem. 165 [1987] 371-378).
The properties of NAF, fMLP and C5a as stimuli of the respiratory burst are compared by assessing the production of superoxide or hydrogen peroxide by the stimulated cells. Superoxide formation is determined as described in Example 13. Hydrogen peroxide formation is determined by chemiluminescence (M. P. Wymann et al., Anal. Biochem. 165 [1987] 371-378). The assay mixture consisting of PBS-BSA containing 0.1 M sodium azide, 0.01 mM luminol, 9 U/ml horseradish peroxidase and 10^6 neutrophils is preincubated for 10 min at 37° and the reaction is started by adding the stimulus via a microsyringe.

Rabbit neutrophils = assay: NAF-induced exocytosis in rabbit neutrophils (N-acetyl-β-glucosaminidase release); type: cell-based; conditions: stimulus 100.0 nM, 15 min, cytochalasin B pretreated; purified natural NAF
Description: Rabbit neutrophils are isolated from peripheral blood (obtained from the ear vein or artery) by dextran sedimentation followed by Hypaque-Ficoll density gradient centrifugation. Purified natural NAF is used.
Exocytosis conditions: 0.6×10^6 cells (in a total volume of 0.15 ml) pretreated with cytochalasin B for 5 min at 37° are stimulated with NAF (0.1-100 nM) or fMLP (100 nM) for 15 min. N-acetyl-β-glucosaminidase, an azurophil granule marker, is determined in the cell-free medium.

human monocytes = assay: NAF production by stimulated human mononuclear cells/monocytes (read out as elastase release); type: cell-based; conditions: mononuclear cell fraction; PHA 5 μg/ml or ConA 10 μg/ml
Description: […] At various time intervals the media are collected, cleared by centrifugation (20000 rpm for 20 min. at 4° C.) and NAF activity is measured. Cells from a single donor; means of duplicate cultures.
Human monocytes are isolated from buffy coats of donor blood (Swiss Red Cross Laboratory, Bern, Switzerland) by centrifugation through a Ficoll-Paque gradient. This method separates neutrophils from the so-called mononuclear cells, a mixture of monocytes (about 20%) and lymphocytes (about 80%). Three monocyte preparations are used: (i) the total mononuclear cell fraction, (ii) monocytes enriched from the mononuclear cell fraction by adherence, and (iii) 90% pure monocytes separated from the lymphocytes by centrifugal elutriation (G. Garotta et al., Biochem. Biophys. Res. Comm. 140 [1986] 948-954 and K. J. Clemetson et al., J. Exp. Med. 161 [1985] 972-983). […] At different times, aliquots of the culture media are sampled and NAF activity is determined as the capacity to induce the release of elastase from human neutrophils pretreated with cytochalasin B (B. Dewald et al., Biochem. Pharmacol. 36 [1987] 2505-2510).
Mononuclear cell cultures (5×10^6 cells/ml) consisting of monocytes and lymphocytes in a ratio of approximately 1:5 produce NAF when stimulated with LPS (100 ng/ml). NAF accumulates in the medium over 24 h and the production levels off between 24 h and 48 h. […]

[6] = exposure to fresh human serum, then activity (superoxide production); type: in vitro ADME; conditions: 15 minutes with fresh human serum
Description: C5A and NAF are incubated for 15 minutes with fresh human serum or with PBS and the activity of the preparations is determined (superoxide production).
Since C5a and NAF have similar effects on neutrophils, further experiments must be performed to discriminate entirely between the two. Samples of NAF and C5a are exposed to fresh human serum.

neutrophils = assay: sequential/repeated stimulation of neutrophils (desensitization, superoxide formation); type: cell-based, human; conditions: superoxide formation
Description: a) Neutrophils (3×10^6 /ml) are preincubated at 37° C. for 5 min. and then stimulated with different agonists as indicated (arrows).
b) Sequential or repeated stimulation with NAF and C5a. Conditions as in a).
Arrows show addition of agonists as indicated. The concentration of C5a is 0.5 nM in a) and 0.2 nM in b), that of fMLP is 20 nM in both experiments. The agonists are added in 50 μl of PBS-BSA.
On the other hand, when agonists acting on different receptors are used in sequence.(e.g. fMLP followed by C5a) these stimulations yield a normal response. Experiments of this type are therefore used to find out whether NAF acts by its own receptor or via a receptor also used by other agonists.

[7] = with CB (cytochalasin B 5 μg/ml)

## 1-0-hexadecyl-2-0-acetyl-sn-glycero-3-phosphocholine [PAF, reference compound]
Human neutrophils [1]
  effect of pretreatment of the cells with PAF on the superoxide response to NAF: markedly enhanced
Human neutrophils [2]
  time between stimulus addition and onset of H2O2 production, as previously reported: about 2 sec

## Cc1c2oc3c(C)ccc(C(=O)N[C@@H]4C(=O)N[C@H](C(C)C)C(=O)N5CCC[C@H]5C(=O)N(C)CC(=O)N(C)[C@@H](C(C)C)C(=O)O[C@@H]4C)c3nc-2c(C(=O)N[C@@H]2C(=O)N[C@H](C(C)C)C(=O)N3CCC[C@H]3C(=O)N(C)CC(=O)N(C)[C@@H](C(C)C)C(=O)O[C@@H]2C)c(N)c1=O [actinomycin D] (I: T[dV]P[Sar][NMeV] / II: T[dV]P[Sar][NMeV]; ester I:1-I:C, II:1-II:C; linker I:N-II:N via Actinocin(9to1))
[3]; actinomycin D 10^−7 moles/site
  effect on neutrophil accumulation induced by NAF: no effect
  effect on neutrophil accumulation induced by fMLP: no effect
[3]; actinomycin D 10^−7 moles/site, endotoxin 10^−13 moles
  inhibition of neutrophil accumulation induced by endotoxin: 90%

## CSCC[C@H](NC=O)C(=O)N[C@@H](CC(C)C)C(=O)N[C@@H](Cc1ccccc1)C(=O)O [fMLP, N-formyl-L-methionyl-L-leucyl-L-phenylalanine, reference compound]
Human neutrophils [4]; [7]
  Percent release of Vit. B12-binding protein: 35.6 ± 5.5%
  Percent release of lactate dehydrogenase: 5.3 ± 1.6%
  Percent release of β-glucuronidase: 12.1 ± 4.4%
Human neutrophils [4]; without CB
  Percent release of Vit. B12-binding protein: 14.0 ± 0.9%
  Percent release of lactate dehydrogenase: 5.7 ± 1.1%
  Percent release of β-glucuronidase: 2.3 ± 0.8%
Human neutrophils [5]
  time between stimulus addition and onset of H2O2 production: about 2 sec
Rabbit neutrophils
  N-acetyl-β-glucosaminidase: 181 pmol/min
Human neutrophils [2]
  time between stimulus addition and onset of H2O2 production, as previously reported: about 2 sec

## CCCCC/C=C\C[C@@H](O)/C=C/C=C/C=C\[C@@H](O)CCCC(=O)O [leukotriene B4]
Human neutrophils [2]
  time between stimulus addition and onset of H2O2 production, as previously reported: about 2 sec

## Polymyxin B
[3]; polymyxin B 40 μg/site
  effect on neutrophil accumulation induced by NAF: without effect
  effect on neutrophil accumulation induced by fMLP: without effect
[3]; polymyxin B 40 μg/site, endotoxin 10^−13 moles
  inhibition of the response to endotoxin: 84%

## concanavalin A [ConA]
Human monocytes
  time at which maximum of NAF production is reached: about 24 h

## phytohemagglutinin [PHA]
Human monocytes
  time at which maximum of NAF production is reached: about 24 h

B1: C5a: anaphylatoxin (protein, UniProt P01031 678-751, looked up)
C5a anaphylatoxin: TLQKKIEEIAAKYKHSVVKKCCYDGACVNNDETCEQRAARISLGPRCIKAFTECCVVASQLRANISHKDMQLGR
modifications: C5a anaphylatoxin
Human neutrophils [5]
  time between stimulus addition and onset of H2O2 production: about 2 sec
[6]
  effect of serum treatment on activity: completely abolishes
neutrophils
  desensitization to a second stimulation with the same agonist: complete desensitization
Human neutrophils [2]
  time between stimulus addition and onset of H2O2 production, as previously reported: about 2 sec

From patent US6383479B1, “Neutrophil-activating factor” (Novartis AG, priority 1987, dated 2002)
